Legend:
Assay type in all cases: cell-based
[1] = molecular target: T1, TYK2 (Homo sapiens, UniProt P29597); test: TYK2 degradation MSD assay in human PBMC cells; parameters: endogenous in cells; host or cells: human PBMC; conditions: 4 to 24 hours incubation, read-out: TYK2 MSD DC50 rating in human PBMC
How it was run: (§1)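 Compound-driven TYK2 loss is measured with a Meso Scale Discovery sandwich assay on whole-cell lysates. Cells are incubated 4 to 24 hours at 37° C with nine 1:3-diluted doses topping at 1 to 10 μM, and DC50 values derive from four-parameter curve fitting.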

[2] = molecular target: T1, TYK2; test: TYK2 degradation MSD assay in EBV-B cells; parameters: endogenous in cells; host or cells: EBV-B cells; conditions: 4 to 24 hours incubation, read-out: TYK2 MSD DC50 rating in EBV-B
How it was run: as §1

[3] = molecular target: T1, TYK2; test: TYK2 degradation MSD assay in OCI-LY10 cells; parameters: endogenous in cells; host or cells: EBV-B cells; conditions: 4 to 24 hours incubation, read-out: TYK2 MSD DC50 rating in OCI-LY10
How it was run: as §1

T1 sequence (P29597 whole entry): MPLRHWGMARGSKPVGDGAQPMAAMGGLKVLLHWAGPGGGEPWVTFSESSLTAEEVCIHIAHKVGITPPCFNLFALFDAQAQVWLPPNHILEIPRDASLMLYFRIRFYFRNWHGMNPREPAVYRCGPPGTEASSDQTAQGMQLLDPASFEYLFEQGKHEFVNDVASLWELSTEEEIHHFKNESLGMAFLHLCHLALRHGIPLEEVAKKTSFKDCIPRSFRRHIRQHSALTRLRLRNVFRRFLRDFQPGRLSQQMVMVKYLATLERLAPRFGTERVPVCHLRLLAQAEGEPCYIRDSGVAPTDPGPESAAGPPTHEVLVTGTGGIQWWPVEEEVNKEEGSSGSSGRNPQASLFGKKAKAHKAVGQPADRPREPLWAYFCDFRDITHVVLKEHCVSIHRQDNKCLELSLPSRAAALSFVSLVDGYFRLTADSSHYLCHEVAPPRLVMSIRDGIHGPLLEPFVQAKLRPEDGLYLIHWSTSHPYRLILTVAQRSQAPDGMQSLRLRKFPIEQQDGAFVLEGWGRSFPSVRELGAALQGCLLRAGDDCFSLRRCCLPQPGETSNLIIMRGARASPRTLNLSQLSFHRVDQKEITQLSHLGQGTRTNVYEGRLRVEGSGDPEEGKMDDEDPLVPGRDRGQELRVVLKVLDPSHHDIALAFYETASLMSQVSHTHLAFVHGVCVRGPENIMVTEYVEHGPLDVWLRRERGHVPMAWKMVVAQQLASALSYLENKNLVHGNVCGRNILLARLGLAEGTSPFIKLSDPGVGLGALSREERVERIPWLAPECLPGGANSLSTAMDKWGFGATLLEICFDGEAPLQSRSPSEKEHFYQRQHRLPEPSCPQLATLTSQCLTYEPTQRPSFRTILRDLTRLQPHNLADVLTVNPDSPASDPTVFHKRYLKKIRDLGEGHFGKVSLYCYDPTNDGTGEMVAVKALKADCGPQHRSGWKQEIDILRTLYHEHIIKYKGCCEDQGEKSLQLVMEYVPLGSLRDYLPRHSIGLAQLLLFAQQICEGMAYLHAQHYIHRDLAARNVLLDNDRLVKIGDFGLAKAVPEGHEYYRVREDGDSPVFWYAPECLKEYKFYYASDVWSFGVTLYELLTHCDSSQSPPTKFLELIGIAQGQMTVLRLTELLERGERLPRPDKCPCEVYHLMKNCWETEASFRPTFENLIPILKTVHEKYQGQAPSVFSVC

SMILES	DC50 [1] [nM]	DC50 [2] [nM]	DC50 [3] [nM]
CNc1cc(Nc2cccn(C3CCN(C(=O)COCCOCCc4ccc5c(c4)n(C)c(=O)n5C4CCC(=O)NC4=O)CC3)c2=O)nn2c(C(=O)N[C@@H]3C[C@@H]3F)cnc12 (stereo partly drawn) [Example K275]	> 100	> 100	> 100
CNc1cc(Nc2cccn(C3CCN(C(=O)COCCOCCOCCOCCc4ccc5c(c4)n(C)c(=O)n5C4CCC(=O)NC4=O)CC3)c2=O)nn2c(C(=O)N[C@@H]3C[C@@H]3F)cnc12 (stereo partly drawn) [Example K276]	10 to 100	> 100	> 100
CNc1cc(Nc2cccn(C3CCN(C(=O)NCCCCc4cccc5c4n(C)c(=O)n5C4CCC(=O)NC4=O)CC3)c2=O)nn2c(C(=O)N[C@@H]3C[C@@H]3F)cnc12 (stereo partly drawn) [Example K278]	1 to 10	> 100	> 100
CNc1cc(Nc2cccn(-c3ccc(C(=O)N(C)C4CCN(Cc5cccc6c5n(C)c(=O)n6C5CCC(=O)NC5=O)CC4)cn3)c2=O)nn2c(C(=O)N[C@@H]3C[C@@H]3F)cnc12 (stereo partly drawn) [Example K279]	< 1	> 100	> 100
CNc1cc(Nc2cccn(-c3ccc(C(=O)N(C)CC4CCN(Cc5cccc6c5n(C)c(=O)n6C5CCC(=O)NC5=O)CC4)cn3)c2=O)nn2c(C(=O)N[C@@H]3C[C@@H]3F)cnc12 (stereo partly drawn) [Example K281]	< 1	< 1	> 100
CNc1cc(-c2cnn(C3CCN(C(=O)NCCCCc4ccc5c(c4)n(C)c(=O)n5C4CCC(=O)NC4=O)CC3)c2)nn2c(C(=O)N[C@@H]3C[C@@H]3F)cnc12 (stereo partly drawn) [Example K294]	> 100	> 100	> 100
CNc1cc(-c2cnn(C3CCN(C(=O)NCCCCc4cccc5c4n(C)c(=O)n5C4CCC(=O)NC4=O)CC3)c2)nn2c(C(=O)N[C@@H]3C[C@@H]3F)cnc12 (stereo partly drawn) [Example K295]	> 100	> 100	> 100
CNc1cc(-c2cnn(C3CCN(C(=O)NCCCCCCCCc4ccc5c(c4)n(C)c(=O)n5C4CCC(=O)NC4=O)CC3)c2)nn2c(C(=O)N[C@@H]3C[C@@H]3F)cnc12 (stereo partly drawn) [Example K296]	< 1	> 100	> 100
CNc1cc(-c2ccc(C(=O)NCCCCc3cccc4c3n(C)c(=O)n4C3CCC(=O)NC3=O)cc2)nn2c(C(=O)N[C@@H]3C[C@@H]3F)cnc12 (stereo partly drawn) [Example K299]	> 100	> 100	> 100
CNc1cc(C2CCN(C(=O)CCCCCCCc3ccc4c(c3)n(C)c(=O)n4C3CCC(=O)NC3=O)CC2)nn2c(C(=O)N[C@@H]3C[C@@H]3F)cnc12 (stereo partly drawn) [Example K302]	> 100	> 100	> 100
CNc1cc(C2CCCN(C(=O)CCCCCCCc3ccc4c(c3)n(C)c(=O)n4C3CCC(=O)NC3=O)C2)nn2c(C(=O)N[C@@H]3C[C@@H]3F)cnc12 (stereo partly drawn) [Example K304]	> 100	> 100	> 100

Now from value to compound:

DC50 [1] [nM]	DC50 [2] [nM]	DC50 [3] [nM]	SMILES
< 1	> 100	> 100	CNc1cc(Nc2ccccc2C(=O)NCCCCCCCCc2ccc3c(c2)n(C)c(=O)n3C2CCC(=O)NC2=O)nn2c(C(=O)N[C@@H]3C[C@@H]3F)cnc12 (stereo partly drawn) [Example K256]
1 to 10	> 100	10 to 100	CNc1cc(Nc2ccccc2C(=O)NCCCCCCc2cccc3c2n(C)c(=O)n3C2CCC(=O)NC2=O)nn2c(C(=O)N[C@@H]3C[C@@H]3F)cnc12 (stereo partly drawn) [Example K257]
< 1	> 100	> 100	CNc1cc(Nc2ccccc2C(=O)NCCCCCCCCc2cccc3c2n(C)c(=O)n3C2CCC(=O)NC2=O)nn2c(C(=O)N[C@@H]3C[C@@H]3F)cnc12 (stereo partly drawn) [Example K258]
> 100	> 100	> 100	CNc1cc(Nc2cccn(-c3ccc(C(=O)NCCCCc4cccc5c4n(C)c(=O)n5C4CCC(=O)NC4=O)cn3)c2=O)nn2c(C(=O)N[C@@H]3C[C@@H]3F)cnc12 (stereo partly drawn) [Example K259]
< 1	> 100	> 100	CNc1cc(Nc2cccn(-c3ccc(C(=O)NCCCCCCCc4ccc5c(c4)n(C)c(=O)n5C4CCC(=O)NC4=O)cn3)c2=O)nn2c(C(=O)N[C@@H]3C[C@@H]3F)cnc12 (stereo partly drawn) [Example K260]
< 1	1 to 10	> 100	CNc1cc(Nc2cccn(-c3ccc(C(=O)NCCCCCCCCCCc4ccc5c(c4)n(C)c(=O)n5C4CCC(=O)NC4=O)cn3)c2=O)nn2c(C(=O)N[C@@H]3C[C@@H]3F)cnc12 (stereo partly drawn) [Example K261]
1 to 10	> 100	> 100	CNc1cc(Nc2cccn(-c3ccc(C(=O)NCCOCCOCCc4ccc5c(c4)n(C)c(=O)n5C4CCC(=O)NC4=O)cn3)c2=O)nn2c(C(=O)N[C@@H]3C[C@@H]3F)cnc12 (stereo partly drawn) [Example K262]
1 to 10	> 100	> 100	CNc1cc(Nc2cccn(-c3ccc(C(=O)NCCOCCOCCOCCOCCc4ccc5c(c4)n(C)c(=O)n5C4CCC(=O)NC4=O)cn3)c2=O)nn2c(C(=O)N[C@@H]3C[C@@H]3F)cnc12 (stereo partly drawn) [Example K263]
> 100	> 100	> 100	CNc1cc(Nc2cccn(-c3ccc(C(=O)NCCCCc4ccc5c(c4)n(C)c(=O)n5C4CCC(=O)NC4=O)cn3)c2=O)nn2c(C(=O)N[C@@H]3C[C@@H]3F)cnc12 (stereo partly drawn) [Example K264]
< 1	> 100	> 100	CNc1cc(Nc2cccn(-c3ccc(C(=O)NCCCCCCCc4cccc5c4n(C)c(=O)n5C4CCC(=O)NC4=O)cn3)c2=O)nn2c(C(=O)N[C@@H]3C[C@@H]3F)cnc12 (stereo partly drawn) [Example K265]
< 1	> 100	> 100	CNc1cc(Nc2cccn(-c3ccc(C(=O)NCCCCCCCCCc4cccc5c4n(C)c(=O)n5C4CCC(=O)NC4=O)cn3)c2=O)nn2c(C(=O)N[C@@H]3C[C@@H]3F)cnc12 (stereo partly drawn) [Example K266]
1 to 10	> 100	> 100	CNc1cc(Nc2cccn(C3CCN(C(=O)NCCCCc4ccc5c(c4)n(C)c(=O)n5C4CCC(=O)NC4=O)CC3)c2=O)nn2c(C(=O)N[C@@H]3C[C@@H]3F)cnc12 (stereo partly drawn) [Example K277]
< 1	< 1	> 100	CNc1cc(Nc2cccn(-c3ccc(C(=O)N(C)CC4CCN(c5ccc6c(c5)n(C)c(=O)n6C5CCC(=O)NC5=O)CC4)cn3)c2=O)nn2c(C(=O)N[C@@H]3C[C@@H]3F)cnc12 (stereo partly drawn) [Example K280]
> 100	> 100	> 100	CNc1cc(-c2ccc(C(=O)NCCCCCCc3ccc4c(c3)n(C)c(=O)n4C3CCC(=O)NC3=O)cc2)nn2c(C(=O)N[C@@H]3C[C@@H]3F)cnc12 (stereo partly drawn) [Example K298]
> 100	> 100	> 100	CNc1cc(-c2ccc(C(=O)NCCCCCCc3cccc4c3n(C)c(=O)n4C3CCC(=O)NC3=O)cc2)nn2c(C(=O)N[C@@H]3C[C@@H]3F)cnc12 (stereo partly drawn) [Example K300]
> 100	> 100	> 100	CNc1cc(-c2ccc(C(=O)NCCCCCCCCc3ccc4c(c3)n(C)c(=O)n4C3CCC(=O)NC3=O)cc2)nn2c(C(=O)N[C@@H]3C[C@@H]3F)cnc12 (stereo partly drawn) [Example K301]
> 100	> 100	> 100	CNc1cc(-c2ccc(C(=O)NCCCCCCCCc3cccc4c3n(C)c(=O)n4C3CCC(=O)NC3=O)cc2)nn2c(C(=O)N[C@@H]3C[C@@H]3F)cnc12 (stereo partly drawn) [Example K303]

Reference: patent publication US20250051338A1, “TYK2 DEGRADERS AND USES THEREOF” (Kymera Therapeutics, Inc., priority 2021, published 2025)
